Assay results as given in patent publication US6677311B1, “Inducible HSV-TK in transformed cell populations” (priority 1988, dated 2004).
Several values for one entry are separate records, joined by “and”; a condition that tells them apart may be missing. Equal values may be shown once.

Legend:
[1] = test system: Abelson leukemia virus induced lymphomas; experiment: Lymphoma response to GCV in HSV-TK transgenic and nontransgenic mice; type: in vivo, mouse
Method: Lymphomas were induced by injecting 5 to 6 week old transgenic mice (generated as described in Example III) intravenously with 0.5 ml of cell-free medium from confluent cultures of 1806-6 cells grown in Dulbecco's medium containing 7% calf serum and 7% fetal bovine serum (Green et al., 1987). These cells produce helper-free Abelson leukemia virus, which induces monoclonal lymphomas principally of the fre-B cell type. The virus encodes a transforming protein but is defective and therefore incapable of replicating or of encoding retroviral antigens in the lymphoma cells it helps to generate. Starting 14 days after virus administration, the mice were palpated daily for lymphomas. These were detectable as small, firm, bilateral nodules in the inguinal region, representing enlarged inguinal lymph nodes. In most cases, the presence of the tumors could be suspected 1-2 days preceding a definitive diagnosis, but the latter was made only after daily palpation confirmed the presence and the growing nature of the enlarged nodes. In the litters used, more than 90% of the injected mice developed lymphomas.
In initial experiments, several transgenic mice were treated with GCV for 5 days (10 doses) without precautions against infection, based on dose schedules previously found to be well tolerated in nontransgenic mice [Moolten, Cancer Res. 46:5276-5281 (1986)]. […] Presuming these deaths to be due to infections consequent to the lymphoid depletion, we limited the GCV therapy to five doses for the subsequent trials reported below and instituted the short-term infection control regimen detailed above, which entailed the use of sterile cages and sterile food and water during a 21-day isolation period. These modifications eliminated all drug-related deaths.
GCV treatment was begun when lymphomas first appeared. […] After it was determined that death inevitably followed these preterminal symptoms, usually within 4 days, were killed animals when the symptoms first appeared rather than utilizing natural death as a survival end point; in the few cases where mice died with large tumors but without preterminal symptoms, the day of natural death was recorded as the end point. This practice introduced about 4 days of imprecision into the estimates of median survival but conforms to current humane guidelines [Medical Research Council, UK Coordinating Committee on Cancer Research: guidelines for the welfare of animals in experimental neoplasia (1988); Kallman et al., Cancer Res. 45:6541-6544 (1985)]. The transgenic mice and littermates were used from 10 litters born to 6 female line 563 transgenic mice mated to BALB/c males. The other nontransgenic controls listed comprised, in the GCV-treated group, 15 C57B1/6×BALB/c (CB6) mice F1 and F2generations) and 8 CB6F1×BALB/c mice, and in the untreated group 29 CB6 (F1 and F2,5 CB6F1×BALB/c, and 15 BALB/c mice. Since the founder mouse of the 563 line was heterozygous for genes derived from C57B1/6 and BALB/c mice, these additional mice complemented the littermate controls by eliminating the possibility that differences between transgenic mice and their littermates were attributable not to the transgene itself but to some other endogenous gene affecting the behavior of lymphomas that differ between C57B1/6 and BALB/c mice and which by accident of integration site found itself genetically linked to the transgene.

[2] = GCV serum and tissue concentration by miniosmotic pump (HPLC)
Method: Transgenic mice from founder line 563 and their non-transgenic litter mates were treated with the nucleoside analog GCV for 1 week by using a miniosmotic pump. […] A separate control group was implanted with a miniosmotic pump containing isotonic phosphate-buffered saline (PBS).

[3] = test system: thymus, spleen, bone marrow and mesenteric lymph nodes
From the text: The pathologic effect of GCV treatment was further evaluated by histological analysis.

[4] = test system: thymocytes; experiment: Recovery of the lymphoid system following GCV treatment; type: in vivo, mouse
Method: Recovery of the Lymphoid System following GCV Treatment. One potential advantage of the conditional ablation method is the ability to remove the drug and evaluate the regenerative capabilities of the affected cell lineages. Repopulation of specific thymocyte lineages in KHTK mice was examined by subjecting mice to a severe ablation of lymphoid tissues followed by a recovery period. Accordingly, one group of animals was treated with GCV or PBS for 7 days followed by a 7-day recovery period. All groups were assayed simultaneously for the total number of thymocytes and the presence of specific antigenic markers. Transgenic mice treated with PBS had 1.1×10^8 thymocytes, whereas, after 7 days of GCV treatment, >99% of the thymocyte population was depleted. After 7 days of recovery, the total number of cells increased by 60-fold to nearly 50% of the PBS-treated control group. To characterize specific populations of thymocytes in the depleted and recovery thymus, […] flow cytometry was performed. […] Nontransgenic mice treated with GCV had the same percentage of L3T4^+ and Lyt-2^+ thymocytes as PBS-treated animals.

[5] = test system: B and T lymphocytes; experiment: Flow cytometry of B and T lymphocytes after GCV treatment; type: in vivo, mouse
From the text: Although the pattern of toxicity was clearly lymphoid-specific, it was not possible to evaluate the impact of GCV treatment on subpopulations of B and T cells by visual inspection. Flow cytometry was employed to analyze specific populations of B and T lymphocytes in mice subjected to various GCV treatment protocols. B lymphocytes were identified by analyzine for the markers, immunoglobulin and B220, and T lymphocytes were identified by Thy-1. After 7 days of GCV treatment, striking and different effects were observed on B and T lymphocytes in spleens of KHTK mice (FIG. 4). The most dramatic impact was on immunoglobulin and B220-positive B cells, which were reduced by a factor of 20 after GCV treatment. Cells bearing the T-cell surface marker, Thy-1, had decreased to 35% of the PBS group. Thus, although both B and T cells in the periphery were sensitive to the toxic action of GCV, B-cell lineages were more susceptible to ablation.
Mice of transgenic line 552 or nontransgenic littermates were treated with GCV for 5 days. The thymuses of individual mice were assayed by two-color flow cytometry and reported as a percentage of total thymocytes expressing the indicated markers. Data are typical of three experiments.
Mice were treated with GCV for 5 days and then two-color flow cytometry was performed to assess the effect of GCV treatment on double-positive, single-positive, and double-negative populations. In non-transgenic mice, 80% of cells were double-positive, 14% were single-positive, and 5% were double-negative. The composition of cells surviving GCV treatment in transgenic mice was markedly altered from that of the control population. There was a relative depletion by a factor of 4 in the double-positive L3T4^+, Lyt-2^+ population and a 3- to 5-fold increase in single-positive L3T4^+, Lyt-2^− and L3T4^−, Lyt-2^+ cells. There was also an increase in the percentage of cells expressing T-cell receptor complex-associated molecule CD3.ε. […] There was also a 6-fold increase in L3T4^−, Lyt-2^− cells. […] It should be pointed out that, although single-positive and CD3^+ cells are relatively enriched in the thymus of drug-treated animals (i.e., percentage), in terms of absolute cell number all thymic lineages are ablated in drug-treated transgenic animals.

[6] = HSV-TK transgenics, GCV five doses
[7] = Nontransgenics Line 563 littermates, GCV
[8] = transgenic line 563, 7 days GCV
[9] = after 7 days of recovery following 7 days GCV
[10] = nontransgenic littermates, GCV 5 days
[11] = transgenic line 552, GCV 5 days
[12] = transgenic vs nontransgenic, GCV 5 days

Nc1nc2c(ncn2COC(CO)CO)c(=O)[nH]1 [GCV, 9-[(1,3-dihydroxy-2-propoxy)methyl]guanine]
Fraction of Mice with complete Regressions [1, 6]: 11 of 12 and 11/12
Median survival (days) of mice with recurrent or persistent lymphoma [1, 6]: 39 days
Number remaining recurrence-free for >100 days [1, 6]: 5
Fraction of Mice with complete Regressions [1, 7]: 0/17
Median survival (days) of mice with recurrent or persistent lymphoma [1, 7]: 13 days
Number remaining recurrence-free for >100 days [1, 7]: 0
Fraction of Mice with complete Regressions ([1]; Other nontransgenics, GCV): 0/23
Median survival (days) of mice with recurrent or persistent lymphoma ([1]; Other nontransgenics, GCV): 8 days
Number remaining recurrence-free for >100 days ([1]; Other nontransgenics, GCV): 0
survival of mice with late recurrences ([1]; three transgenic mice, GCV five doses): 47 days and 63 days and 90 days
tumor response ([1]; transgenic mice, GCV 5 days (10 doses), no precautions against infection): regressed and became undetectable after the fifth dose
outcome of mice ([1]; transgenic mice, GCV 5 days (10 doses), no precautions against infection, usually during the second week): the mice died
steady-state serum concentration ([2]; miniosmotic pump, within 24 hr, HPLC): 1 to 5 µM
concentration of GCV in all tissues assayed ([2]; relative to serum 1-5 μM): comparable to this value
number of cells in the bone marrow ([3]; GCV-treated transgenic mice): 15 % of control
number of cells in the spleen ([3]; GCV-treated transgenic mice): 15 % of control
number of cells in the thymus ([3]; GCV-treated transgenic mice): 2 % of control
cell counts of lymphoid tissues vs PBS-treated group ([3]; mouse, in vivo): unchanged
pathology in nontransgenic mice ([3]; mouse, in vivo): no apparent pathology
wet weights of lymph nodes [3, 8]: 20 % of control
wet weights of the spleen and thymus [3, 8]: 15 % of control
histology of thymus ([3]; transgenic mice, 7 days GCV): atrophied thymus with a virtual complete absence of the cortex and a hypocellular medulla
increase of total number of thymocytes [4, 9]: 60 fold
total number of thymocytes relative to PBS-treated control group [4, 9]: ~50%
nonspecific effects on T-cell lineages ([4]; nontransgenic mice, GCV 7 days and recovery): no nonspecific effects
thymocyte population depleted ([4]; transgenic mice, after 7 days of GCV treatment): > 99%
Thy-1 bearing cells in spleen ([5]; KHTK mice, 7 days GCV): 35 % of the PBS group
reduction factor of immunoglobulin and B220-positive B cells in spleen ([5]; KHTK mice, 7 days GCV): 20
single-positive cells ([5]; non-transgenic mice, GCV 5 days): 14%
% thymocytes CD3.ε+ [5, 10]: 35%
% thymocytes L3T4+, Lyt-2+ [5, 10]: 80%
% thymocytes L3T4+, Lyt-2- [5, 10]: 10%
% thymocytes L3T4-, Lyt-2+ [5, 10]: 4%
% thymocytes L3T4-, Lyt-2- [5, 10]: 5%
Total cell number (thymus) [5, 10]: 6.3 × 10^7
profile of antigenic markers ([5]; nontransgenic mice treated with GCV): normal
% thymocytes CD3.ε+ [5, 11]: 76%
% thymocytes L3T4+, Lyt-2+ [5, 11]: 21%
% thymocytes L3T4+, Lyt-2- [5, 11]: 27%
% thymocytes L3T4-, Lyt-2+ [5, 11]: 21%
% thymocytes L3T4-, Lyt-2- [5, 11]: 30%
Total cell number (thymus) [5, 11]: 3.8 × 10^6
increase in L3T4-, Lyt-2- cells [5, 12]: 6 fold
relative depletion factor of double-positive L3T4+, Lyt-2+ population [5, 12]: 4
